Assay results published in patent US20180154142A1, “METHODS AND DEVICES FOR TREATMENT OF TUMORS WITH NANO-PULSE STIMULATION” (Old Dominion University Research Foundation, priority 2016, published 2018).

How the values were obtained:
[1] = system: 4T1 cells; test: extracellular ATP release from treated 4T1 cells, luciferase/luciferin-based ATP determination kit; type: cell-based, mouse; conditions: mitoxantrone 1 μM positive control; change from 4 hours to 24 hours following treatment; FIG. 18B
Description: (§1) Cells then were placed in a 6 well plate for 1 hour or 20 hours. Cells with media but no NPS treatment served as negative control and a known ICD inducer, mitoxantrone (1 μM) was added to cells as a positive control. Cell surface-exposed CRT was measured by flow cytometry (FACSAria). Extracellular ATP concentrations were quantified by the luciferase/luciferin-based ATP determination Kit (A22066, Thermo-Fisher). The amount of HMGB1 in the supernatant was determined by HMGB1 ELISA Kit (MBS722248, MyBioSource).

[2] = system: 4T1 cells; test: cell surface calreticulin (CRT) on treated 4T1 cells, flow cytometry; type: cell-based, mouse; conditions: mitoxantrone 1 μM positive control; change from 4 hours to 24 hours following treatment; FIG. 18A
Description: as §1

O=C1c2c(O)ccc(O)c2C(=O)c2c(NCCNCCO)ccc(NCCNCCO)c21 [MXT, mitoxantrone]
levels of ATP release in the supernatants [1]: increases | levels of calreticulin, mean fluorescence intensity (MFI) [2]: largest increase
